Source: patent publication US8063077B2, “Factor Xa inhibitors” (Millennium Pharmaceuticals, Inc., priority 2006, dated 2011)

Experiments:
[1] = target: T1, human plasma protein factor Xa (Homo sapiens, UniProt P00742); assay: Factor Xa IC50 determination, cleavage of paranitroanilide substrate S-2765; format: biochemical; details: factor Xa 1 nM, S2765 100 μM, Tris buffered saline pH 7.4, 5% DMSO
T1 construct: The human plasma protein factor Xa was purchased from Haematologic Technologies; purchased Haematologic Technologies (Essex Junction, Vt.); host or cells: human plasma
T1 sequence (P00742 235-488 limits assumed): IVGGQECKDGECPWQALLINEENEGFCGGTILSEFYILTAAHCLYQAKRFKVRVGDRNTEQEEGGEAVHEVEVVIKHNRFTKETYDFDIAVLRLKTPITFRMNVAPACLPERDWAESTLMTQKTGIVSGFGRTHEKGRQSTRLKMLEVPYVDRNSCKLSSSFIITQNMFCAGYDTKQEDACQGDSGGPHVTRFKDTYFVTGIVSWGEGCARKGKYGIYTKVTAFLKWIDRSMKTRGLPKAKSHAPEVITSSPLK
T1 sequence (P00742 41-179 partner limits assumed): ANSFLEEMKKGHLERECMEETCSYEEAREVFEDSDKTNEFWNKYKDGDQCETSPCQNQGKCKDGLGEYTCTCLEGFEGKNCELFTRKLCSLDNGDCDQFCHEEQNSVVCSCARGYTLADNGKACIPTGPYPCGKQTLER
Description: This example illustrates methods for evaluating the compounds of the invention, along with results obtained for such assays. The in vitro and in vivo human Factor Xa activities of the inventive compounds can be determined by various procedures known in the art, such as a test for their ability to inhibit the activity of human plasma Factor Xa. […] The IC50 value is the concentration (in nM) of the compound required to provide 50% inhibition of human Factor Xa proteolytic activity.
An in vitro assay for detecting and measuring inhibition activity against Factor Xa is as follows:
The substrate S-2765 (Z-D-Arg-Gly-Arg-pNA•HCl) was obtained from Diapharma (West Chester, Ohio).
The human plasma protein factor Xa was purchased from Haematologic Technologies (Essex Junction, Vt.).
All assays, which are performed in 96-well microtiter plates, measure proteolytic activity of the enzyme (factor Xa) by following cleavage of a paranitroanilide peptide substrate. The assay buffer used for proteolytic assays was Tris buffered saline (20 mM Tris, 150 mM NaCl, 5 mM CaCl2, 0.1% Bovine serum albumin (BSA), 5% Dimethly Sulfoxide (DMSO) pH 7.4). In a 96-well microtiter plate, inhibitor was serially diluted to give a range of final concentrations from 0.01 nM to 10 μM. Duplicate sets of wells were assayed and control wells without inhibitor were included. Enzyme was added to each well, (factor Xa concentration=1 nM), the plate was shaken for 5 seconds and then incubated for 5 minutes at room temperature. S2765 was added (100 μM final) and the plate was shaken for 5 seconds (final volume in each well was 200 μl). The degree of substrate hydrolysis was measured at 405 nm on a Thermomax plate reader (Molecular Devices, Sunnyvale, Calif.) for 2 minutes. The initial velocities of substrate cleavage (mOD/min), for each range of inhibitor concentrations, were fitted to a four parameter equation using Softmax data analysis software. The parameter C, derived from the resulting curve-fit, corresponded to the concentration for half maximal inhibition (IC50).

[2] = Pharmacokinetics of Compound 10 in rat (IV and PO), plasma and urine by LC/MS/MS; format: in vivo, male Sprague-Dawley rats; set-up: AUC/D (dose-normalized AUC(0-inf)): unit not given here; details: mean ± SD
Experimental: Compound 10 was used in the rat investigation. An intravenous (IV) and oral (PO) dose of Compound 10 (1.0 and 10 mg/kg, respectively) was prepared. The IV dose was solubilized in 50% PEG300 to yield a final concentration of 1.0 mg/mL with a final pH of 5.13. The PO dose was suspended in 0.5% methylcellulose at a concentration of 2.0 mg/mL with a final pH of 2.70.
A total of six male Sprague-Dawley rats (n=3/dosing group) from Charles River Laboratories (Hollister, Calif.), three male beagle dogs from Marshall BioResources (North Rose, N.Y.) and three male rhesus monkeys were utilized. All surgical procedures in rat (femoral and jugular vein catheterizations) were performed 8 days prior to utilization in the study and rats were acclimated in-house 5 days prior to utilization. Dogs were acclimated in-house at least seven days prior to utilization and were returned to the colony at the completion of the study. Monkey studies were conducted by an off-site contract laboratory.
All animals were fasted from the afternoon prior to study initiation to two hours post-dose (approximately 18 hours). Water was provided ad libitum. All animal rooms were on a 12 hour light-dark cycles (6 A.M. to 6 P.M.). On the morning of experimentation, animals were weighed. Rat femoral and jugular (IV only) vein blood lines were exteriorized and attached to access ports. […]
(§1) All animals were dosed based on individual weights with a PO gavage volume of 5.0 mL/kg and an IV bolus dose volume of 1.0 mL/kg. […] At collection times, urine volume and water consumption was recorded. […]
(§2) Plasma and urine samples were analyzed for Compound 10 concentration using a liquid chromatography tandem mass spectrometry (LC/MS/MS). […] The peak areas of the m/z 411→250 product ion (Compound 10) were measured against those of the m/z 470→342 product ion (N-(2-(5-chloropyridin-2-ylcarbaomoyl)-4-methoxyphenyl)-4-(N,N-dimethylcarbamimidoyl)-2-fluorobenzamide) in positive ion mode. […]
(§3) Sample Compound 10 concentrations below the lower limit of quantitation (LLQ) were reported as <0.500 ng/mL. […]

[3] = Pharmacokinetics of Compound 10 in dog (IV and PO), plasma by LC/MS/MS; format: in vivo, male beagle dogs; set-up: AUC/D (dose-normalized AUC(0-inf)): unit not given here; details: mean ± SD
Experimental: (§4) For the dog and monkey study, Compound 10 was also used. An IV and PO dose of Compound 10 (1.0 and 5.0 mg/kg, respectively) was prepared. The IV dose was formulated similarly to that used in the rat study (50% PEG300 in water). The PO dose was suspended in 0.5% methylcellulose at a concentration of 1.0 mg/mL with a final pH of approximately 3.50.
(§5) A total of six male Sprague-Dawley rats (n=3/dosing group) from Charles River Laboratories (Hollister, Calif.), three male beagle dogs from Marshall BioResources (North Rose, N.Y.) and three male rhesus monkeys were utilized. […]
as §1, §2, §3

[4] = Pharmacokinetics of Compound 10 in monkey (IV and PO), plasma by LC/MS/MS; format: in vivo, male rhesus monkeys; set-up: AUC/D (dose-normalized AUC(0-inf)): unit not given here; details: mean ± SD
Experimental: as §4, §5, §1, §2, §3

IC50 [1] [nM] | other results | SMILES
≤ 100 | Dose excreted unchanged in urine ([2]; intravenous, 1 mg/kg, urine to 24 hours post-dose): 0.248 ± 0.019%; bioavailability ([2]; male, Sprague-Dawley, plasma, oral 10 mg/kg vs intravenous 1 mg/kg, read-out: F (absolute bioavailability)): 127 ± 23.1%; AUC/D (dose-normalized AUC(0-inf)) ([2]; oral, 10 mg/kg, n=3): 6859 ± 1249; bioavailability ([3]; male, beagle, plasma, oral 5 mg/kg vs intravenous 1 mg/kg, read-out: F (absolute bioavailability)): 68.5 ± 15.5%; AUC/D (dose-normalized AUC(0-inf)) ([3]; oral, 5 mg/kg, n=3): 1095 ± 295; bioavailability ([4]; male, rhesus, rhesus monkey, plasma, oral 5 mg/kg vs intravenous 1 mg/kg, read-out: F (absolute bioavailability)): 71.6 ± 18.1%; AUC/D (dose-normalized AUC(0-inf)) ([4]; oral, 5 mg/kg, n=3): 8430 ± 3449 | O=C(NCc1cn(-c2ccc(-n3ccccc3=O)cc2)cn1)c1ccc(Cl)s1 [Compound 10, 5-Chloro-N-((1-(4-(2-oxopyridin-1(2H)-yl)phenyl)-1H-imidazol-4-yl)methyl)thiophene-2-carboxamide]
≤ 100 |  | Cc1nc(CNC(=O)c2ccc(Cl)s2)cn1-c1ccc(-n2ccccc2=O)cc1 [Compound 62, 5-Chloro-N-((2-methyl-1-(4-(2-oxopyridin-1(2H)-yl)phenyl)-1H-imidazol-4-yl)methyl)thiophene-2-carboxamide]
≥ 500 |  | Cc1c(CNC(=O)c2ccc(Cl)s2)ncn1-c1ccc(-n2ccccc2=O)cc1 [Compound 63, 5-Chloro-N-((5-methyl-1-(4-(2-oxopyridin-1(2H)-yl)phenyl)-1H-imidazol-4-yl)methyl)thiophene-2-carboxamide]
≤ 100 |  | C[S+]([O-])c1nc(CNC(=O)c2ccc(Cl)s2)cn1-c1ccc(-n2cc(F)ccc2=O)cc1 (centres unmarked) [Compound 64, 5-chloro-N-((1-(4-(5-fluoro-2-oxopyridin-1(2H)-yl)phenyl)-2-(methylsulfinyl)-1H-imidazol-4-yl)methyl)thiophene-2-carboxamide]
≤ 100 |  | CS(=O)(=O)c1nc(CNC(=O)c2ccc(Cl)s2)cn1-c1ccc(-n2cc(F)ccc2=O)cc1 [Compound 65, 5-chloro-N-((1-(4-(5-fluoro-2-oxopyridin-1(2H)-yl)phenyl)-2-(methylsulfonyl)-1H-imidazol-4-yl)methyl)thiophene-2-carboxamide]
≤ 100 |  | C[S+]([O-])c1nc(CNC(=O)c2ccc(Cl)s2)cn1-c1ccc(-n2cccc(F)c2=O)cc1 (centres unmarked) [Compound 66, 5-chloro-N-((1-(4-(3-fluoro-2-oxopyridin-1(2H)-yl)phenyl)-2-(methylsulfinyl)-1H-imidazol-4-yl)methyl)thiophene-2-carboxamide]
≤ 100 |  | CS(=O)(=O)c1nc(CNC(=O)c2ccc(Cl)s2)cn1-c1ccc(-n2cccc(F)c2=O)cc1 [Compound 67, 5-chloro-N-((1-(4-(3-fluoro-2-oxopyridin-1(2H)-yl)phenyl)-2-(methylsulfonyl)-1H-imidazol-4-yl)methyl)thiophene-2-carboxamide]
